Assay [1] has as its target Peptidyl-prolyl cis-trans isomerase NIMA-interacting 1 (Homo sapiens, UniProt Q13526). The assay is described as follows: Inhibition of Pin-1 (unknown origin) using Suc-Ala-Glu-Pro-Phe-pNA as substrate preincubated for 300 seconds followed by substrate addition by UV/Vis spectrophotometric analysis.
Assay [2] deals with Tubulin. Nature of the assay: Inhibition of tubulin (unknown origin) polymerization. Type of assay: protein-complex assay, Homo sapiens.
Assay [3] deals with B16. The assay is described as follows: Cytotoxicity against mouse B16 cells assessed as tumor growth inhibition relative to control. Type of assay: functional.
Assay [4] has as its target T1, Aromatase (Homo sapiens, UniProt P11511).
T1 sequence (P11511 whole entry): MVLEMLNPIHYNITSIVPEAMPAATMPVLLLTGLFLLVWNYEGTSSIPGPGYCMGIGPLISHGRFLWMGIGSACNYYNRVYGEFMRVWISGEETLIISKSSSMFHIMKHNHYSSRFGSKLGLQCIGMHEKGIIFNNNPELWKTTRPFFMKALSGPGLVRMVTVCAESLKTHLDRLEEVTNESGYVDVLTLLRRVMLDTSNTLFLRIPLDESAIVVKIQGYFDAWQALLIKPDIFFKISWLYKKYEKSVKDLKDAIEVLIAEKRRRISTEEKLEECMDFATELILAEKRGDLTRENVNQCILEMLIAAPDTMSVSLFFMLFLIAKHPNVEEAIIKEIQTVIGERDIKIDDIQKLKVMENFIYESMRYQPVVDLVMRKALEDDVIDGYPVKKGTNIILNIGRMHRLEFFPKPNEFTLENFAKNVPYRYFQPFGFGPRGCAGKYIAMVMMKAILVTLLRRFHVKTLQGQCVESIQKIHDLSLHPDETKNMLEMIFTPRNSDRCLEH
The assay is described as follows: Inhibition of aromatase (unknown origin).

Assay [5] in a line: Antitumor activity against human HT1080 cells by MTT assay. As to conditions: HT-1080. Type of assay: functional, cell-based. (Tetrazolium dyes change colour on reduction, which living cells bring about.)
Assay [6] is described as follows: Antitumor activity against human Bel7402 cells by MTT assay. Conditions: Bel-7402. Type of assay: functional, cell-based.
For assay [7], the system named is Bel-7402. Nature of the assay: Ratio of cisplatin IC50 to compound IC50 for human Bel7402 cells. Type of assay: functional.
The subject of assay [8] is HT-1080. Nature of the assay: Ratio of cisplatin IC50 to compound IC50 for human HT1080 cells. Type of assay: functional.
A short description of assay [9]: Growth inhibition of mouse mammary carcinoma 755 cells relative to control. Type of assay: functional.
In assay [10] the test system is Jensen sarcoma. The assay is described as follows: Growth inhibition of rat Jensen sarcoma relative to control. The assay is classed as functional.
The test system of assay [11] is MDA-MB-231. The assay is described as follows: Cytotoxicity against human MDA-MB-231 cells relative to licofelone. The assay is classed as functional.
The test system of assay [12] is MCF7. The assay is described as follows: Cytotoxicity against human MCF7 cells relative to licofelone. The assay is classed as functional.
Assay [13] has as its system MCF7. The assay is described as follows: Cytotoxicity against human MCF7 cells relative to 5-flurouracil. The assay is classed as functional.
Assay [14] concerns HT-29. Nature of the assay: Cytotoxicity against human HT-29 cells relative to licofelone. The assay is classed as functional.
The test system of assay [15] is MDA-MB-231. The assay is described as follows: Cytotoxicity against human MDA-MB-231 cells relative to 5-flurouracil. Type of assay: functional.
The nature of assay [16]: Cytotoxicity against mouse mammary carcinoma 755 cells assessed as tumor growth inhibition relative to control. Type of assay: functional.
Assay [17] can be described thus: Cytotoxicity against mouse LLC cells assessed as tumor growth inhibition relative to control. The assay is classed as functional, Lewis lung carcinoma.

Consider 16 compounds from ChEMBL document CHEMBL3097987, “Pyrrolizines: Promising scaffolds for anticancer drugs” (Bioorg Med Chem, 2014).

A word on the Ki: it is the dissociation constant of the complex between target and ligand, obtained from inhibition or displacement. Higher therefore signals lower affinity. In general, IC50 refers to the concentration needed to halve the response being measured. A lower IC50 goes with inhibition by little substance. In general, TGI refers to how far tumour growth fell short of that in controls.

The structures appear in SMILES notation.

Peptidyl-prolyl cis-trans isomerase NIMA-interacting 1, sequence (Q13526 whole entry): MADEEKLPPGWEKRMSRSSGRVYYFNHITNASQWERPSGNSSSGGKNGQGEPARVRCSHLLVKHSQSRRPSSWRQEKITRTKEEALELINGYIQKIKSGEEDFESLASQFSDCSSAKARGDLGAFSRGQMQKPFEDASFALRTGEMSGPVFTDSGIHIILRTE

For `O=C(NCc1ccccc1)C1C(COP(=O)(O)O)C2CCCN2C1c1ccccc1` (racemic), affinity in [1] was put at a Ki of 44 µM.

With `COc1cc([C@@H]2c3cc4c(cc3C[C@H]3COC(=O)[C@@H]32)OCO4)cc(OC)c1OC` [DESOXYPODOPHYLLOTOXIN], the half-inhibitory concentration (IC50) in assay [2] is 2.4 µM. The compound `CO[C@@H]1C[C@@H]2[C@@H](COP(=O)(O)O)[C@@H](C(=O)NCc3ccccc3)[C@@H](c3ccc4ccccc4c3)N2C1` gave an inhibition constant (Ki) in assay [1] of 9 µM. On to `CCOC(=O)c1c2n(c3c(SC)ncnc13)CCC2`, for which the TGI in assay [3] was found to be 40%. `O=C1/C(=C\c2ccncc2)C(c2ccccc2)n2cccc21` (configuration not stated): it took 0.65 µM to reach half-maximal inhibition in assay [4] (IC50). Turning to `CSc1sc2c(c1-c1ccc([N+](=O)[O-])cc1)-n1cccc1/C2=N\OCOCCN1CCN(C)CC1`, the IC50 is 8.2 µM in assay [5] and 18.2 µM in [6]. Also, the “Ratio IC50” value was found to be 2.5 in assay [7] and 3.3 in [8]. `CN(C)/C=N/C(=O)c1c2n(c3c(-c4ccccc4)ncnc13)CCC2`: the “growth inhibition (GI)” value in assay [9] and in assay [10] was 78% each time. In [1], `O=C(NCc1ccccc1)C1C(COP(=O)(O)O)C2CCCN2C1c1ccc2ccccc2c1` (racemic) came in with an inhibition constant (Ki) of 15 µM. Still for that read-out and setting: under `O=C(NCc1ccc2c(c1)OCO2)C1C(COP(=O)(O)O)C2CCCN2C1c1ccc2ccccc2c1` (racemic) stands 32 µM.

As for `CC1(C)Cc2c(-c3ccccc3)c(-c3ccc(Cl)cc3)c(C(=O)Cn3cncn3)n2C1`, the “fold change (FC)” value in assay [11], in [12], in assay [13], in assay [14] and in assay [15] was 2 throughout.

For the compound `COc1ccc(-c2csc3c2-n2cccc2C3=O)cc1O`, half-maximal inhibition in assay [2] (IC50) required 2.9 µM. The compound `O=C1/C(=C\c2cccnc2)C(c2ccccc2)n2cccc21` (configuration not stated) displayed an IC50 in assay [4] of 3 µM. With `NC(=O)c1c2n(c3c(-c4ccccc4)ncnc13)CCC2`, the growth inhibition (GI) in assay [9] and in assay [10] was 73% in each case. As to `CCOC(=O)Sc1ncnc2c(C(=O)OCC)c3n(c12)CCC3`, the tumour growth inhibition (TGI) in assay [3] is 40%; in [16], 34%. Turning to `CCOC(=O)c1c2n(c3c(SCc4ccccc4)ncnc13)CCC2`, the TGI was determined as 43% in assay [17] and 40% in [3].

In the case of `O=C(NCc1ccccc1)C1C(COP(=O)(O)O)C2CCCN2C1c1c(F)c(F)c(F)c(F)c1F` (racemic), the Ki in assay [1] came to 16 µM.
